Calls of active or inactive are those of the source. The rule behind the calls is not given here.
Assays:
[1] = Induction of osteogeneis in rat calvarial osteoblast cells assessed as fold upregulation of ALP gene expression at 100 pM measured after 48 hrs by qPCR analysis relative to control; type: functional
[2] = tested on: Calvarial osteoblast; test: Induction of osteoblast differentiation in rat Calvaria osteoblast cells measured assessed as maximal increase in alkaline phosphatase activity incubated for 48 hrs using PNPP as substrate; type: functional
[3] = tested on: Calvarial osteoblast; test: Cytotoxicity against rat Calvarial osteoblast cells assessed as viable cells measured at 0.000001 to 1 uM measure after 48 hrs by cell viability assay; type: cell-based; conditions: dose lower 1e-06 µM, dose upper 1 µM
[4] = tested on: Calvarial osteoblast; test: Induction of rat Calvarial osteoblast cell proliferation at 0.000001 to 1 uM measured after 48 hrs by MTT assay; type: functional, tissue-based; conditions: dose lower 1e-06 µM, dose upper 1.0 µM
[5] = tested on: Calvarial osteoblast; test: Induction of mineralization in rat Calvarial osteoblast cells measured at 10 nM measured for 14 days by Cetylpyridinium chloride method; type: functional, tissue-based; conditions: time 14.0 day
[6] = tested on: Calvarial osteoblast; test: Induction of osteogenesis in rat calvarial osteoblast cells assessed as fold upregulation of BMP-2 gene expression at 10 nM measured after 48 hrs by qPCR analysis relative to control; type: functional
[7] = Induction of osteogeneis in rat calvarial osteoblast cells assessed as fold upregulation of Col1 gene expression at 10 nM measured after 48 hrs by qPCR analysis relative to control; type: functional
[8] = Induction of osteogeneis in rat calvarial osteoblast cells assessed as fold upregulation of RUNX2 gene expression at 10 nM measured after 48 hrs by qPCR analysis relative to control; type: functional
[9] = Induction of osteogeneis in rat calvarial osteoblast cells assessed as fold upregulation of ALP gene expression at 1 pM measured after 48 hrs by qPCR analysis relative to control; type: functional
[10] = Induction of osteogeneis in rat calvarial osteoblast cells assessed as fold upregulation of BMP-2 gene expression at 1 pM measured after 48 hrs by qPCR analysis relative to control; type: functional
[11] = tested on: Calvarial osteoblast; test: Induction of osteogeneis in rat calvarial osteoblast cells assessed as fold upregulation of Col1 gene expression at 1 pM measured after 48 hrs by qPCR analysis relative to control; type: functional
[12] = Induction of osteogeneis in rat calvarial osteoblast cells assessed as fold upregulation of RUNX2 gene expression at 1 pM measured after 48 hrs by qPCR analysis relative to control; type: functional
[13] = tested on: Calvarial osteoblast; test: Induction of mineralization in rat Calvarial osteoblast cells measured at 100 pM measured for 14 days by Cetylpyridinium chloride method; type: functional, tissue-based; conditions: time 14.0 day
[14] = Induction of osteogeneis in rat calvarial osteoblast cells assessed as fold upregulation of BMP-2 gene expression at 100 pM measured after 48 hrs by qPCR analysis relative to control; type: functional
[15] = Induction of osteogeneis in rat calvarial osteoblast cells assessed as fold upregulation of Col1 gene expression at 100 pM measured after 48 hrs by qPCR analysis relative to control; type: functional
[16] = tested on: Calvarial osteoblast; test: Induction of osteoblast differentiation in rat Calvaria osteoblast cells measured assessed as increase in alkaline phosphatase activity at 1 pM incubated for 48 hrs using PNPP as substrate; type: functional, cell-based
[17] = tested on: Calvarial osteoblast; test: Induction of osteoblast differentiation in rat Calvaria osteoblast cells measured assessed as increase in alkaline phosphatase activity at 10 pM incubated for 48 hrs using PNPP as substrate; type: functional, cell-based

Structure (SMILES)	fold change (FC) [1]	ECmax [2]	Activity [3]	Activity [4]	Activity [5]	fold change (FC) [6]	fold change (FC) [7]	fold change (FC) [8]	fold change (FC) [9]	fold change (FC) [10]	Activity [11]	fold change (FC) [12]	Activity [13]	fold change (FC) [14]	fold change (FC) [15]	Activity [16]	Activity [17]
COc1cc(C(=O)Nc2ccc3c(c2)C(O)CC(c2cccc(C)c2)O3)cc(OC)c1OC (stereo not given)	2.3	100 pM	Non-Toxic	Active	Active	1.83	1.55	1.8									
COc1cc(C(=O)Nc2ccc3c(c2)C(=O)CC(c2ccc(C(C)(C)C)cc2)O3)cc(OC)c1OC (stereo not given)		10 pM	Non-Toxic	Toxic	Active				2.8	1.7	inactive	1.9					
COc1cc(C(=O)Nc2ccc3c(c2)C(=O)CC(c2ccccc2)O3)cc(OC)c1OC (stereo not given)	1.3	10 pM	Non-Toxic									2	Active	1.9	1.8		
COc1cc(C(=O)O)cc(OC)c1OC																Active	Active

— ChEMBL document CHEMBL5030532, “Synthesis and Evaluation of Galloyl Conjugates of Flavanones as BMP-2 Upregulators with Promising Bone Anabolic and Fracture Healing Properties” (J Med Chem, 2021)
